US20260325533A1, “CDK INHIBITOR COMPOUNDS” (ALEKSIA THERAPEUTICS, INC., priority 2023, published 2026)
pIC50: −log10 of the molar value. Read-outs that look alike come from different tables or passages of the source.

Columns and labels:
CDK2/CCNE1 = CDK2/CCNE1 (Homo sapiens, UniProt P24941); assay: CDK2 homogeneous time-resolved fluorescence (HTRF) kinase assay; assay type: biochemical; conditions: CDK2/CCNE
Experimental: (§1) A CDK homogeneous time-resolved fluorescence (HTRF) assay was used to assess the potency of the compounds described herein.
(§2) To an untreated 384-well microtiter plate (ProxiPlate) was added 100 nL 100×test compound in DMSO and 5 μL 2×CDK enzyme in assay buffer (50 mM HEPES, 1 mM EGTA, 10 mM MgCl2, 0.01% Tween 20, 2 mM DTT). The plate was centrifuged at 800 RPM for 1 min then incubated for 20 min at 23 °C. 2.5 μL per well of 4×ATP and 2.5 μL 4×ULight™-eIF4E-binding protein 1 (Thr37/46) Peptide substrate were added to all wells. After addition, the plates were centrifuged at 800 RPM for 1 min. The plates were incubated at 23 °C for 60 min. 5 μL per well 4×EDTA solution were added to each well to stop the reaction. 5 μL 4×LANCE Ultra Europium-anti-phospho-eIF4E-binding protein 1 (Thr37/46) antibody were added to each well and the plate was centrifuged for 1 min at 800 RPM. The plate was incubated for 60 min at 23 °C. Fluorescence was read at 340 nm excitation and 665 nm emission on an En Vision 2105 fluorescence reader. The final concentrations of reagents in the activity assay were 3 nM CDK2/CCNE1, 1 mM ATP, 50 nM ULight™-eIF4E-binding protein 1 (Thr37/46) Peptide substrate, 1% DMSO, 10 mM EDTA, and 2 nM LANCE Ultra Europium-anti-phospho-eIF4E-binding protein 1 (Thr37/46).
(§3) Dose-response titrations were conducted by using an 11-point, half-logarithmic serial dilution scheme typically starting at 10 μM. Signals were reported as fluorescence units at 665 nm or the ratio of fluorescence units at 665 nm/fluorescence units at 615 nm. Signals are referred to below as “Lance signals”.
(§4) Using this assay, the IC50 values of example compounds were determined. Table 3 illustrates the IC50 for various Example compounds of Formula IA. Table 4 illustrates the IC50 for various other Example compounds of Formula I. ND=not determined.

CDK1/CCNB1 = CDK1/CCNB1 (Homo sapiens, UniProt P06493); assay: CDK1 homogeneous time-resolved fluorescence (HTRF) kinase assay; assay type: biochemical; conditions: CDK1/CCNB
Experimental: as §1
as §2, with “were 0.5” for “were 3”, “nM CDK1/CCNB1,” for “nM CDK2/CCNE1,”
as §3, §4

[1] = 25-250 nM marked x, read-out: CDK2/CCNE IC50 25-250 nM
[2] = >250 nM marked x, read-out: CDK1/CCNB IC50 >250 nM
[3] = <25 nM, read-out: CDK2/CCNE IC50 <25 nM
[4] = >250 nM marked x, read-out: CDK2/CCNE IC50 >250 nM

CDK1/CCNB1, sequence (P06493 whole entry): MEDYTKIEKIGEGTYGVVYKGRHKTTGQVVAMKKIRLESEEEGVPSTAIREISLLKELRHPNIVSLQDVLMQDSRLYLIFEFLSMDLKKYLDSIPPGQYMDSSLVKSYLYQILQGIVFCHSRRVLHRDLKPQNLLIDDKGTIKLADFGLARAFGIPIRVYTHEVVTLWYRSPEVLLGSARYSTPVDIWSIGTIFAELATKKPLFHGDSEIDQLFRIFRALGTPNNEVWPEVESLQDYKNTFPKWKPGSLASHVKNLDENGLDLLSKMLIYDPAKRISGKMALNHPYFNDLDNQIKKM
CDK1/CCNB1, sequence (P14635 whole entry partner): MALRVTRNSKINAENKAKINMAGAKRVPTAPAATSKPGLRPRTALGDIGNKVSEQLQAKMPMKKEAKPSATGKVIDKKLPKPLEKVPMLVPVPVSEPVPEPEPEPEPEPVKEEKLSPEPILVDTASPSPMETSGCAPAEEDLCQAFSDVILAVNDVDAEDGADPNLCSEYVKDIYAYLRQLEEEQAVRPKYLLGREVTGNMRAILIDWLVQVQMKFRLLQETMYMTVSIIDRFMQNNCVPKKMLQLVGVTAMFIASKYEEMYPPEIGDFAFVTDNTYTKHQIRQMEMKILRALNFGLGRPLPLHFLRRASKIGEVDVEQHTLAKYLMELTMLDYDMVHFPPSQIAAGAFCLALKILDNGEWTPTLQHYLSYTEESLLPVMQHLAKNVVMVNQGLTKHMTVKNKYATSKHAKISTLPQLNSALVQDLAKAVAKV

SMILES | pIC50 (CDK2/CCNE1; [1]) | pIC50 (CDK1/CCNB1; [2]) | also measured
Cc1c(-c2nccc3cnc(Nc4ccc(S(C)(=O)=O)cc4)cc23)ccc2nn(CC3CCNC3)cc12 (racemic) [Ex 195, 5-(4-methyl-2-(pyrrolidin-3-ylmethyl)-2H-indazol-5-yl)-N-(4-(methylsulfonyl)phenyl)-2,6-naphthyridin-3-amine] | 6.60 to 7.60 | < 6.60 | 
CS(=O)(=O)c1ccc(Nc2cc3c([C@@H]4CCC[C@H](O)C4)nccc3cn2)cc1 (racemic) [Ex 203, (1S,3R)-3-(7-((4-(methylsulfonyl)phenyl)amino)-2,6-naphthyridin-1-yl)cyclohexan-1-ol (cis, racemic)] | 6.60 to 7.60 | < 6.60 | 
CCN(C)c1nccc2cnc(NC3CCN(S(C)(=O)=O)CC3)cc12 [Ex 38, N1-ethyl-N1-methyl-N7-(1-(methylsulfonyl)piperidin-4-yl)-2,6-naphthyridine-1,7-diamine] |  |  | pIC50 (CDK2/CCNE1; [3]): > 7.60; pIC50 (CDK1/CCNB1; 25-250 nM marked x, read-out: CDK1/CCNB IC50 25-250 nM): 6.60 to 7.60
CS(=O)(=O)N1CCC(Nc2cc3c(N4CCN(CCO)CC4)nccc3cn2)CC1 [Ex 60, 2-(4-(7-((1-(methylsulfonyl)piperidin-4-yl)amino)-2,6-naphthyridin-1-yl)piperazin-1-yl)ethan-1-ol] | 6.60 to 7.60 | < 6.60 | 
CS(=O)(=O)N1CCC(Nc2cc3c(-c4cccnc4)nccc3cn2)CC1 [Ex 67, N-(1-(methylsulfonyl)piperidin-4-yl)-5-(pyridin-3-yl)-2,6-naphthyridin-3-amine] | 6.60 to 7.60 | < 6.60 | 
CS(=O)(=O)N1CCC(Nc2cc3c(/C(C#N)=C/O)nccc3cn2)CC1 [Ex 80, (Z)-3-hydroxy-2-(7-((1-(methylsulfonyl)piperidin-4-yl)amino)-2,6-naphthyridin-1-yl)acrylonitrile] | 6.60 to 7.60 | < 6.60 | 
CS(=O)(=O)N1CCC(Nc2cc3c(-c4ccc(CN5CCOCC5)cc4)nccc3cn2)CC1 [Ex 84, N-(1-(methylsulfonyl)piperidin-4-yl)-5-(4-(morpholinomethyl)phenyl)-2,6-naphthyridin-3-amine] | 6.60 to 7.60 | < 6.60 | 
COc1ncc(-c2nccc3cnc(NC4CCN(S(C)(=O)=O)CC4)cc23)cn1 [Ex 85, 5-(2-methoxypyrimidin-5-yl)-N-(1-(methylsulfonyl)piperidin-4-yl)-2,6-naphthyridin-3-amine] |  | < 6.60 | pIC50 (CDK2/CCNE1; [4]): < 6.60
CS(=O)(=O)N1CCC(Nc2cc3c(-c4cnc5[nH]ccc5c4)nccc3cn2)CC1 [Ex 88, N-(1-(methylsulfonyl)piperidin-4-yl)-5-(1H-pyrrolo[2,3-b]pyridin-5-yl)-2,6-naphthyridin-3-amine] | 6.60 to 7.60 | < 6.60 | 
C=CS(=O)(=O)N1CCC(Nc2cc3c(-c4cnn(C)c4)nccc3cn2)CC1 [Ex 108, 5-(1-methyl-1H-pyrazol-4-yl)-N-(1-(vinylsulfonyl)piperidin-4-yl)-2,6-naphthyridin-3-amine] | 6.60 to 7.60 | < 6.60 | 
C=CS(=O)(=O)N1CCC(Nc2cc3c(-c4ccc(C#N)nc4)nccc3cn2)CC1 [Ex 109, 5-(7-((1-(vinylsulfonyl)piperidin-4-yl)amino)-2,6-naphthyridin-1-yl)picolinonitrile] | 6.60 to 7.60 | < 6.60 | 
N#CC1CCN(c2nccc3cnc(Nc4ccc(C(=O)ON5C(=O)CCC5=O)cc4)cc23)CC1 [Ex 110, 2,5-dioxopyrrolidin-1-yl 4-((5-(4-cyanopiperidin-1-yl)-2,6-naphthyridin-3-yl)amino)benzoate] |  |  | pIC50 (CDK2/CCNE1; [3]): > 7.60; pIC50 (CDK1/CCNB1; <25 nM, read-out: CDK1/CCNB IC50 <25 nM): > 7.60
N#CC1CCN(c2nccc3cnc(Nc4cccc(C(=O)ON5C(=O)CCC5=O)c4)cc23)CC1 [Ex 111, 2,5-dioxopyrrolidin-1-yl 3-((5-(4-cyanopiperidin-1-yl)-2,6-naphthyridin-3-yl)amino)benzoate] | 6.60 to 7.60 | < 6.60 | 

More lines, main results first:

pIC50 (CDK2/CCNE1; [1]) | pIC50 (CDK1/CCNB1; [2]) | SMILES | also measured
6.60 to 7.60 | < 6.60 | CS(=O)(=O)c1ccc(Nc2cc3c(C4CCCC(=O)C4)nccc3cn2)cc1 (racemic) [Ex 204, 3-(7-((4-(methylsulfonyl)phenyl)amino)-2,6-naphthyridin-1-yl)cyclohexan-1-one] | 
6.60 to 7.60 | < 6.60 | C=CS(=O)(=O)c1ccc(Nc2cc3c(N4CCC(O)C4)nccc3cn2)cc1 (racemic) [Ex 211, 1-(7-((4-(vinylsulfonyl)phenyl)amino)-2,6-naphthyridin-1-yl)pyrrolidin-3-ol] | 
6.60 to 7.60 | < 6.60 | CS(=O)(=O)N1CCC(Nc2cc3c(N4CCC(C(N)=O)C4)nccc3cn2)CC1 (racemic) [Ex 260, 1-(7-((1-(methylsulfonyl)piperidin-4-yl)amino)-2,6-naphthyridin-1-yl)pyrrolidine-3-carboxamide] | 
6.60 to 7.60 | < 6.60 | CS(=O)(=O)N1CCC(Nc2cc3c(N(CO)Cc4ccccc4)nccc3cn2)CC1 [Ex 53, (benzyl(7-((1-(methylsulfonyl)piperidin-4-yl)amino)-2,6-naphthyridin-1-yl)amino)methanol] | 
6.60 to 7.60 | < 6.60 | CC1(O)CCN(c2nccc3cnc(NC4CCN(S(C)(=O)=O)CC4)cc23)CC1 [Ex 54, 4-methyl-1-(7-((1-(methylsulfonyl)piperidin-4-yl)amino)-2,6-naphthyridin-1-yl)piperidin-4-ol] | 
6.60 to 7.60 | < 6.60 | CN(Cc1ccccc1)C1CCN(c2nccc3cnc(NC4CCN(S(C)(=O)=O)CC4)cc23)CC1 [Ex 55, 5-(4-(benzyl(methyl)amino)piperidin-1-yl)-N-(1-(methylsulfonyl)piperidin-4-yl)-2,6-naphthyridin-3-amine] | 
 | < 6.60 | CS(=O)(=O)N1CCC(Nc2cc3c(N4CCS(=O)(=O)CC4)nccc3cn2)CC1 [Ex 59, 4-(7-((1-(methylsulfonyl)piperidin-4-yl)amino)-2,6-naphthyridin-1-yl)thiomorpholine 1,1-dioxide] | pIC50 (CDK2/CCNE1; [4]): < 6.60
6.60 to 7.60 | < 6.60 | CS(=O)(=O)N1CCC(Nc2cc3c(-c4ccc(C(F)(F)F)nc4)nccc3cn2)CC1 [Ex 62, N-(1-(methylsulfonyl)piperidin-4-yl)-5-(6-(trifluoromethyl)pyridin-3-yl)-2,6-naphthyridin-3-amine] | 
 | < 6.60 | CS(=O)(=O)N1CCC(Nc2cc3c(-c4cnc(N)nc4)nccc3cn2)CC1 [Ex 66, 5-(2-aminopyrimidin-5-yl)-N-(1-(methylsulfonyl)piperidin-4-yl)-2,6-naphthyridin-3-amine] | pIC50 (CDK2/CCNE1; [4]): < 6.60
6.60 to 7.60 | < 6.60 | CS(=O)(=O)N1CCC(Nc2cc3c(-c4ccncc4)nccc3cn2)CC1 [Ex 83, N-(1-(methylsulfonyl)piperidin-4-yl)-5-(pyridin-4-yl)-2,6-naphthyridin-3-amine] | 
 | < 6.60 | CS(=O)(=O)N1CCC(Nc2cc3c(-c4ccc(C(=O)O)cc4)nccc3cn2)CC1 [Ex 86, 4-(7-((1-(methylsulfonyl)piperidin-4-yl)amino)-2,6-naphthyridin-1-yl)benzoic acid] | pIC50 (CDK2/CCNE1; [4]): < 6.60
 | < 6.60 | CS(=O)(=O)N1CCC(Nc2cc3c(C(=O)NC4CC4)nccc3cn2)CC1 [Ex 93, N-cyclopropyl-7-((1-(methylsulfonyl)piperidin-4-yl)amino)-2,6-naphthyridine-1-carboxamide] | pIC50 (CDK2/CCNE1; [4]): < 6.60
 | < 6.60 | C=CS(=O)(=O)N1CCC(Nc2cc3c(N4CCC(O)CC4)nccc3cn2)CC1 [Ex 105, 1-(7-((1-(vinylsulfonyl)piperidin-4-yl)amino)-2,6-naphthyridin-1-yl)piperidin-4-ol] | pIC50 (CDK2/CCNE1; [3]): > 7.60
